This passage reports IC50 results from patent publication US11878975B2, “Substituted indole compounds useful as TLR inhibitors” (BRISTOL-MYERS SQUIBB COMPANY, priority 2017, dated 2024).

What all share (assay type): cell-based
One assay concerns the target T1, human TLR7 (Homo sapiens, UniProt Q9NYK1).
T1 construct: host or cells: HEK-Blue cells
T1 sequence (Q9NYK1 27-1049): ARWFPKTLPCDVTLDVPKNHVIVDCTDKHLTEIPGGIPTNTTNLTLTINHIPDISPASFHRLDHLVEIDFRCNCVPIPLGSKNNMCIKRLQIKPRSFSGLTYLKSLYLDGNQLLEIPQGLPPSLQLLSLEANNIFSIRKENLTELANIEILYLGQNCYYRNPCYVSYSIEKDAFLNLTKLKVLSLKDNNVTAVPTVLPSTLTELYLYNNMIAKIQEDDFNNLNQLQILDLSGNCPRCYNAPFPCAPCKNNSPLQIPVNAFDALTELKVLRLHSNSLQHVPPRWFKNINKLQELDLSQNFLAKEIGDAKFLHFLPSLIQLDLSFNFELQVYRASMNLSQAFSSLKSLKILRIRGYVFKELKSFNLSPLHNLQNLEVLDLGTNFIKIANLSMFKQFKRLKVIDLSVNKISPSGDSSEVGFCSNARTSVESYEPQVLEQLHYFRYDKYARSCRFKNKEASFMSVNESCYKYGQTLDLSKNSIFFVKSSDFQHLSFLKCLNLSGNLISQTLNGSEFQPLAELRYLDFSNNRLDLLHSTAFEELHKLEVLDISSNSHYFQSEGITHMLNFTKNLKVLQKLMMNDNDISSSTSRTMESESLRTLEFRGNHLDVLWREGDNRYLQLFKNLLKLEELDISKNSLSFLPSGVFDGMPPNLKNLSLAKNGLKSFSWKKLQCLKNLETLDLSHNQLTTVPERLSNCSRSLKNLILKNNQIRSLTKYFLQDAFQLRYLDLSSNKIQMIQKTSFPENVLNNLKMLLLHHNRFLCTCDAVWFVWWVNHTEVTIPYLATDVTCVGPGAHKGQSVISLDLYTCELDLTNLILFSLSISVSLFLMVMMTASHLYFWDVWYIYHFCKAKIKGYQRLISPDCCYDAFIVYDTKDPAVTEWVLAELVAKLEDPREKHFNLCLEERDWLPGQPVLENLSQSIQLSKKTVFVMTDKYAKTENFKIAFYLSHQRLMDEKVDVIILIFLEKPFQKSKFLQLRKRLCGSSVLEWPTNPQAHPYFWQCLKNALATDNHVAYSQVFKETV
The assay can be described thus: TLR7 inhibition reporter assay (HEK-Blue cells, SEAP reporter, gardiquimod stimulation). To be noted: HEK-Blue cells overexpressing human TLR7, SEAP reporter, gardiquimod 7.5 μM. The gist of the method: (§1)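 HEK-Blue cells with NF-κB/AP-1-driven SEAP reporter, pre-treated 30 min at room temperature with compound (0.05 nM-50 μM). Stimulants: gardiquimod 7.5 μM (TLR7), R848 15.9 μM (TLR8) or ODN2006 5 nM (TLR9). SEAP measured after 22 h at 37° C.; percent inhibition versus agonist-plus-DMSO and known-inhibitor wells.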

A further assay concerns the target T2, human TLR9 (Homo sapiens, UniProt Q9NR96).
T2 construct: host or cells: HEK-Blue cells
T2 sequence (Q9NR96 26-1032): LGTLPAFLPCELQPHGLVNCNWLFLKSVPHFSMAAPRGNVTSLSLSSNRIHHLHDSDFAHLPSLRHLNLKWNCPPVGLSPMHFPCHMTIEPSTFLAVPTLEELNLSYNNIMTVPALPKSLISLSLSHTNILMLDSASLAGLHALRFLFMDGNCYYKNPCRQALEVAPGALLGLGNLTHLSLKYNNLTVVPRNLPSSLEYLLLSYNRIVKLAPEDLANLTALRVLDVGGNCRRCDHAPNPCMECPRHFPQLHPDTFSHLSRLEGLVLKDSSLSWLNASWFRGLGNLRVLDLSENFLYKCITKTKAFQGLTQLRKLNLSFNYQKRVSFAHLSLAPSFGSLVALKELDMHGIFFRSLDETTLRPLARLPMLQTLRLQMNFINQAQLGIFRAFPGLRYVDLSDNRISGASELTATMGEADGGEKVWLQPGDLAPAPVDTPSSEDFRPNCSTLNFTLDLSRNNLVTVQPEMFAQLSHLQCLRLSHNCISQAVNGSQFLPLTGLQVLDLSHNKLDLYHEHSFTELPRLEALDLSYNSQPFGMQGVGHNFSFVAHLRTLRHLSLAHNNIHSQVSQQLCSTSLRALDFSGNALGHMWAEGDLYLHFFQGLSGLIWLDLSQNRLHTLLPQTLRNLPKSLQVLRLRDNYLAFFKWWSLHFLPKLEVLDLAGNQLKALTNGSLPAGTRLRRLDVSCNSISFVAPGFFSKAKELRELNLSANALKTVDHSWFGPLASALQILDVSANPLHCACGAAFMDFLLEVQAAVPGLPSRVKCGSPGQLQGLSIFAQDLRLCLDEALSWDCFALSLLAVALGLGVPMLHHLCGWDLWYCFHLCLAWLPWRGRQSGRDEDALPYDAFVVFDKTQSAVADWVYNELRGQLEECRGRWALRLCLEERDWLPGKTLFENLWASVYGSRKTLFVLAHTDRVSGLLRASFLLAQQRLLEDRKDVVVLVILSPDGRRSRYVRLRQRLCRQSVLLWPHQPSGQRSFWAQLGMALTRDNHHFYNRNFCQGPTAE
The assay can be described thus: TLR9 inhibition reporter assay (HEK-Blue cells, SEAP reporter, ODN2006 stimulation). As to conditions: HEK-Blue cells overexpressing human TLR9, SEAP reporter, ODN2006 5 nM. The gist of the method:
as §1

For the next assay, the target named is T3, human TLR8 (Homo sapiens, UniProt Q9NR97).
T3 construct: host or cells: HEK-Blue cells
T3 sequence (Q9NR97 27-1041): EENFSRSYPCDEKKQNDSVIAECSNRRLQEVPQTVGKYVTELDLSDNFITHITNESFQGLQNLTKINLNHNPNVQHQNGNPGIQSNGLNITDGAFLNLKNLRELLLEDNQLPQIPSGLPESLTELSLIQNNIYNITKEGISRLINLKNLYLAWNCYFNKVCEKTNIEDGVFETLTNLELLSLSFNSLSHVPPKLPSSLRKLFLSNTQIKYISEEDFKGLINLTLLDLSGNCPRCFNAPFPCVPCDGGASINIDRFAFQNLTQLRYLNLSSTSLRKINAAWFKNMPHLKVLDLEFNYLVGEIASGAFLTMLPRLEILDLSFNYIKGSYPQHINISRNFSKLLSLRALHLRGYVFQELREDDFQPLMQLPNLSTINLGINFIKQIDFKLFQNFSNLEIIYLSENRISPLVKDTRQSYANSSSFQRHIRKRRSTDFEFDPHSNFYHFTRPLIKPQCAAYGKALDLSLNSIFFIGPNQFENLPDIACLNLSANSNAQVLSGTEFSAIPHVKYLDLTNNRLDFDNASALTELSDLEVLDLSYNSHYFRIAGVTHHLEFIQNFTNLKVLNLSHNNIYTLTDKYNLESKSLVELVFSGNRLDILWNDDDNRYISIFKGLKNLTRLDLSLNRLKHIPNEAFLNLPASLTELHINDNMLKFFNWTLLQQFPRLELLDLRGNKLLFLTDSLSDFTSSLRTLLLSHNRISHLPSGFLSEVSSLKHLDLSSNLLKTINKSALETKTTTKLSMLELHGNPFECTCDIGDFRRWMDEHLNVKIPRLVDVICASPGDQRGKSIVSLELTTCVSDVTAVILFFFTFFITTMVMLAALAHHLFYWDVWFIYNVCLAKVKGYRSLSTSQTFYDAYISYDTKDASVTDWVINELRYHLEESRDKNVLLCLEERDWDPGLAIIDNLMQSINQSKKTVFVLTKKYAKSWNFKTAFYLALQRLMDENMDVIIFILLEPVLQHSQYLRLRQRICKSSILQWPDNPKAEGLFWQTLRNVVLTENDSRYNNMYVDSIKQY
The assay is described as follows: TLR8 inhibition reporter assay (HEK-Blue cells, SEAP reporter, R848 stimulation). To be noted: HEK-Blue cells overexpressing human TLR8, SEAP reporter, R848 15.9 μM. The gist of the method: as §1

As to `Cc1cc(-c2[nH]c3ccc(C4CCCN(C(=O)C5CNC5)C4)cc3c2C(C)C)cc(C)n1` (stereo not drawn) [Example 215], the results for the half-inhibitory concentration (IC50) at human TLR7, at human TLR9 and at human TLR8 were 19 nM, 677 nM and 123 nM, respectively.
On to `CN[C@@H](C)C(=O)N1CCCC(c2ccc3[nH]c(-c4cc(C)nc(C)c4)c(C(C)C)c3c2)C1` (stereo partly drawn) [Example 216], for which the results for the 50% inhibitory concentration (IC50) on human TLR7, against human TLR9 and against human TLR8 were 7 nM, 303 nM and 18 nM, respectively.
For `CN[C@H](C)C(=O)N1CCCC(c2ccc3[nH]c(-c4cc(C)nc(C)c4)c(C(C)C)c3c2)C1` (stereo partly drawn) [Example 217] the same measures were 5 nM, 697 nM and 51 nM.
As to `Cc1cc(-c2[nH]c3ccc(C4CCCN(C(=O)[C@@H]5CCN5)C4)cc3c2C(C)C)cc(C)n1` (stereo partly drawn) [Example 218], the IC50 against human TLR7 turned out to be 15 nM; at human TLR9 it was 699 nM; against human TLR8, 80 nM.
As for `CN[C@@H](C)C(=O)N1CCCC(c2ccc3[nH]c(-c4cc(C)nc(C)c4)c(C(C)C)c3c2)C1` (stereo partly drawn) [Example 219], the IC50 at human TLR7 came to 9 nM; on human TLR9, 519 nM; on human TLR8, 8.5 nM.
For `Cc1cc(-c2[nH]c3ccc(C4CCCN(C(=O)[C@@H]5CCN5)C4)cc3c2C(C)C)cc(C)n1` (stereo partly drawn) [Example 220], the values for the IC50 at human TLR7, at human TLR9 and at human TLR8 were 1 nM, 339 nM and 11 nM, respectively.
For the compound `COc1cc(-c2[nH]c3ccc(C4CCCN(CC(=O)N(C)C)C4)cc3c2C(C)C)cn2ncnc12` (stereo not drawn) [Example 222, 2-(3-(3-isopropyl-2-(8-methoxy-[1,2,4]triazolo[1,5-a]pyridin-6-yl)-1H-indol-5-yl)piperidin-1-yl)-N,N-dimethylacetamide], the IC50 on human TLR7 was 2 nM; on human TLR9, 3100 nM; on human TLR8, 9.2 nM.
As to `CNC(=O)CN1CCCC(c2ccc3[nH]c(-c4cc(OC)c5ncnn5c4)c(C(C)C)c3c2)C1` (stereo not drawn) [Example 223], the 50% inhibitory concentration (IC50) at human TLR7 worked out at 2 nM; against human TLR9, 7500 nM; on human TLR8 it was 13 nM.
For `COc1cc(-c2[nH]c3ccc(C4CCCN(CC(=O)N(C)C)C4)cc3c2C(C)C)cn2ncnc12` (stereo not drawn) [Example 224] the same measures were 2 nM, 1830 nM and 16 nM.
For `COc1cc(-c2[nH]c3ccc(C4CCCN(CC(N)=O)C4)cc3c2C(C)C)cn2ncnc12` (stereo not drawn) [Example 225] the same measures were 4 nM, 4730 nM and 12 nM.
With `Cc1c(-c2[nH]c3ccc(C4CCCN(CC(=O)N(C)C)C4)cc3c2C(C)C)cn2ncnc2c1C` (stereo not drawn) [Example 226], the IC50 was 17 nM on human TLR7, 9770 nM against human TLR9 and 7.4 nM against human TLR8.
With `COc1ccc(-c2[nH]c3ccc(C4CCCN(CC(=O)N(C)C)C4)cc3c2C(C)C)cc1OC` (stereo not drawn) [Example 227], the figures for the IC50 on human TLR7, against human TLR9 and on human TLR8 were 156 nM, 3770 nM and 51 nM, respectively.
As for `CNC(=O)CN1CCCC(c2ccc3[nH]c(-c4cc(OC)c5ncnn5c4)c(C(C)C)c3c2)C1` (stereo not drawn) [Example 228], the IC50 at human TLR7 was 2 nM; against human TLR9, 4870 nM; at human TLR8 it was 10 nM.
For the compound `COc1cc(-c2[nH]c3ccc(C4CCCN(CC(N)=O)C4)cc3c2C(C)C)cn2ncnc12` (stereo not drawn) [Example 229], the IC50 against human TLR7 worked out at 4 nM; against human TLR9, 6380 nM; at human TLR8 it was 8.1 nM.
For the compound `Cc1c(-c2[nH]c3ccc(C4CCCN(CC(=O)N(C)C)C4)cc3c2C(C)C)cn2ncnc2c1C` (stereo not drawn) [Example 230], the IC50 at human TLR7 turned out to be 13 nM; on human TLR9, 5790 nM; against human TLR8 it was 13 nM.
Take `CNC(=O)CN1CCCC(c2ccc3[nH]c(-c4cn5ncnc5c(C)c4C)c(C(C)C)c3c2)C1` (stereo not drawn) [Example 231]: the figures for the IC50 at human TLR7, against human TLR9 and against human TLR8 were 9 nM, 17300 nM and 4.6 nM, respectively.
`CNC(=O)CN1CCCC(c2ccc3[nH]c(-c4cn5ncnc5c(C)c4C)c(C(C)C)c3c2)C1` (stereo not drawn) [Example 232]: the 50% inhibitory concentration (IC50) against human TLR7 was 9 nM; at human TLR9, 16300 nM; on human TLR8, 8.1 nM.
In the case of `Cc1cc(-c2[nH]c3ccc(C4CCCN(CC(=O)N(C)C)C4)cc3c2C(C)C)cc(C)n1` (stereo not drawn) [Example 233], the IC50 against human TLR7 came out at 15 nM; at human TLR9 it was 1350 nM; at human TLR8 it was 56 nM.
Consider `COc1cc(-c2[nH]c3ccc(C4CCCN(CC(N)=O)C4)cc3c2C(C)C)cn2ncnc12` (stereo not drawn) [Example 234], for which the values for the IC50 on human TLR7, against human TLR9 and on human TLR8 were 3 nM, 7370 nM and 5.7 nM, respectively.
With `Cc1cc(-c2[nH]c3ccc(C4CCCN(CC(=O)N(C)C)C4)cc3c2C(C)C)cc(C)n1` (stereo not drawn) [Example 235], the IC50 was determined as 40 nM at human TLR7, 693 nM against human TLR9 and 12 nM on human TLR8.
Consider `COc1cc(-c2[nH]c3ccc(C4CCCN(C(C)C)C4)cc3c2C(C)C)cn2ncnc12` (stereo not drawn) [Example 236, 6-(3-isopropyl-5-(1-isopropylpiperidin-3-yl)-1H-indol-2-yl)-8-methoxy-[1,2,4]triazolo[1,5-a]pyridine], for which the results for the half-inhibitory concentration (IC50) against human TLR7, at human TLR9 and at human TLR8 were 1 nM, 1250 nM and 0.46 nM, respectively.
